# Measured values taken from US20180117043A1, “USE OF SRC PROTEIN INHIBITOR IN THE MANUFACTURE OF A MEDICAMENT FOR THE PROPHYLAXIS AND/OR TREATMENT OF ALZHEIMER'S DISEASE” (JenKem Technology Co., Ltd. (Beijing), priority 2015, published 2018).
# Columns and labels:
# [1] = tested on: transgenic fruit flies and double transgenic mice expressing Aβ42; details: cited from earlier work; for treatment of Aβ42-induced memory loss: transgenic fruit flies and double transgenic mice expressing Aβ42, WO2012/103282; for curative effect in screening: compounds screened in WO2012/103282
# [2] = tested on: primary isolated fetal mouse cerebral cortical neuron; assay: Neuroprotective activity assay against Aβ42 oligomer toxicity, cell viability detected with WST-8; details: 24 h
# [3] = 0.01 μM/L drug + Aβ42 10 μmol/L
# [4] = 1000 μM/L drug + Aβ42 10 μmol/L
# [5] = Aβ42 oligomer 10 μmol/L, compared with model group
# [6] = 0.001 μM/L drug + Aβ42 10 μmol/L
structure (smiles),measurement,setting,value
CCOc1cc2ncc(C#N)c(Nc3ccc(F)c(Cl)c3)c2cc1NC(=O)/C=C/CN(C)C [EKB-569],treatment of Aβ42-induced memory loss,[1],effective
CCOc1cc2ncc(C#N)c(Nc3ccc(OCc4cccc(F)c4)c(Cl)c3)c2cc1NC(=O)/C=C/CN(C)C [HKI-357],treatment of Aβ42-induced memory loss,[1],effective
N#C/C(=C\c1ccc(-c2cc(C(=O)O)ccc2Cl)o1)C(=O)Nc1ccc(F)cc1 [JKF-006],curative effect in screening,[1],preferable curative effect
same,treatment of Aβ42-induced memory loss,[1],effective
CC#CC(=O)Nc1ccc2ncnc(Nc3cccc(Br)c3)c2c1 [CL-387785],treatment of Aβ42-induced memory loss,[1],effective
C=CCNc1c(O)cc2c(O)c1C[C@@H](C)C[C@H](OC)[C@H](O)[C@@H](C)/C=C(\C)[C@H](OC(N)=O)[C@@H](OC)/C=C\C=C(/C)C(=O)N2 [IPI-504],treatment of Aβ42-induced memory loss,[1],effective
COc1cc2c(Nc3ccc(Cl)c(Cl)c3F)ncnc2cc1OC[C@@H]1C[C@@H]2CN(C)C[C@@H]2C1 [XL647],treatment of Aβ42-induced memory loss,[1],effective
Cc1c(NC(=O)OC[C@@H]2COCCN2)cn2ncnc(Nc3ccc4c(cnn4Cc4cccc(F)c4)c3)c12 [BMS-599626],treatment of Aβ42-induced memory loss,[1],effective
CN(C)C/C=C/C(=O)Nc1cc2c(Nc3ccc(F)c(Cl)c3)ncnc2cc1O[C@H]1CCOC1 [BIBW 2992],treatment of Aβ42-induced memory loss,[1],effective
N#C/C(=C\c1ccc(N2CCOCC2)o1)C(=O)NCCc1c[nH]c2ccccc12 [JKF-027],curative effect in screening,[1],preferable curative effect
same,treatment of Aβ42-induced memory loss,[1],effective
same,Mean value of cell viability based on three independent replicates,[2]; 0.01 μM drug + Aβ42 10 μmol/L,46.83%
same,Cell viability data in the first independent test,[2]; [3],49.59%
same,Cell viability data in the second independent test,[2]; [3],45.88%
same,Cell viability data in the third independent test,[2]; [3],45.00%
same,Mean value of cell viability based on three independent replicates,[2]; 0.1 μM drug + Aβ42 10 μmol/L,61.39%
same,Cell viability data in the first independent test,[2]; 0.1 μM/L drug + Aβ42 10 μmol/L,77.44%
same,Cell viability data in the second independent test,[2]; 0.1 μM/L drug + Aβ42 10 μmol/L,48.40%
same,Cell viability data in the third independent test,[2]; 0.1 μM/L drug + Aβ42 10 μmol/L,58.33%
same,Mean value of cell viability based on three independent replicates,[2]; 1.0 μM drug + Aβ42 10 μmol/L,65.31%
same,Cell viability data in the first independent test,[2]; 1 μM/L drug + Aβ42 10 μmol/L,61.59%
same,Cell viability data in the second independent test,[2]; 1 μM/L drug + Aβ42 10 μmol/L,61.01%
same,Cell viability data in the third independent test,[2]; 1 μM/L drug + Aβ42 10 μmol/L,73.33%
same,Mean value of cell viability based on three independent replicates,[2]; 10 μM drug + Aβ42 10 μmol/L,77.28%
same,Cell viability data in the first independent test,[2]; 10 μM/L drug + Aβ42 10 μmol/L,87.60%
same,Cell viability data in the second independent test,[2]; 10 μM/L drug + Aβ42 10 μmol/L,69.75%
same,Cell viability data in the third independent test,[2]; 10 μM/L drug + Aβ42 10 μmol/L,74.50%
same,Mean value of cell viability based on three independent replicates,[2]; 100 μM drug + Aβ42 10 μmol/L,40.52%
same,Cell viability data in the first independent test,[2]; 100 μM/L drug + Aβ42 10 μmol/L,51.83%
same,Cell viability data in the second independent test,[2]; 100 μM/L drug + Aβ42 10 μmol/L,46.89%
same,Cell viability data in the third independent test,[2]; 100 μM/L drug + Aβ42 10 μmol/L,22.83%
same,Mean value of cell viability based on three independent replicates,[2]; 1000 μM drug + Aβ42 10 μmol/L,21.89%
same,Cell viability data in the first independent test,[2]; [4],27.85%
same,Cell viability data in the second independent test,[2]; [4],18.66%
same,Cell viability data in the third independent test,[2]; [4],19.17%
same,effective concentration range (anti-toxic effect against Aβ42 oligomer),[2]; [5],0.1 to 10 µmol/L
same,optimum anti-toxic concentration,[2]; [5],0.1 to 10 µmol/L
C=CCNC1=C2C[C@@H](C)C[C@H](OC)[C@H](O)[C@@H](C)/C=C(\C)[C@H](OC(N)=O)[C@@H](OC)/C=C\C=C(/C)C(=O)NC(=CC1=O)C2=O [Compound 17-AAG],treatment of Aβ42-induced memory loss,[1],effective
"Cc1nc(Nc2ncc(C(=O)Nc3c(C)cccc3Cl)s2)cc(N2CCN(CCO)CC2)n1 [Compound I, N-(2-chloro-6-methylphenyl)-2-{6-[4-(3-hydroxyethyl)-1-piperazinyl]-2-methyl-4-pyrimidinylamino}-5-thiazolecarboxamide]",Mean value of cell viability based on three independent replicates,[2]; 0.001 μM drug + Aβ42 10 μmol/L,46.65%
same,Cell viability data in the first independent test,[2]; [6],26.98%
same,Cell viability data in the second independent test,[2]; [6],54.70%
same,Cell viability data in the third independent test,[2]; [6],58.28%
same,Mean value of cell viability based on three independent replicates,[2]; 0.01 μM drug + Aβ42 10 μmol/L,67.99%
same,Cell viability data in the first independent test,[2]; [3],69.31%
same,Cell viability data in the second independent test,[2]; [3],67.22%
same,Cell viability data in the third independent test,[2]; [3],67.46%
same,Mean value of cell viability based on three independent replicates,[2]; 0.1 μM drug + Aβ42 10 μmol/L,71.02%
same,Cell viability data in the first independent test,[2]; 0.1 μM/L drug + Aβ42 10 μmol/L,80.78%
same,Cell viability data in the second independent test,[2]; 0.1 μM/L drug + Aβ42 10 μmol/L,64.25%
same,Cell viability data in the third independent test,[2]; 0.1 μM/L drug + Aβ42 10 μmol/L,68.05%
same,Mean value of cell viability based on three independent replicates,[2]; 1.0 μM drug + Aβ42 10 μmol/L,72.44%
same,Cell viability data in the first independent test,[2]; 1 μM/L drug + Aβ42 10 μmol/L,76.90%
same,Cell viability data in the second independent test,[2]; 1 μM/L drug + Aβ42 10 μmol/L,65.73%
same,Cell viability data in the third independent test,[2]; 1 μM/L drug + Aβ42 10 μmol/L,74.70%
same,Mean value of cell viability based on three independent replicates,[2]; 10 μM drug + Aβ42 10 μmol/L,63.20%
same,Cell viability data in the first independent test,[2]; 10 μM/L drug + Aβ42 10 μmol/L,68.61%
same,Cell viability data in the second independent test,[2]; 10 μM/L drug + Aβ42 10 μmol/L,56.51%
same,Cell viability data in the third independent test,[2]; 10 μM/L drug + Aβ42 10 μmol/L,64.50%
same,Mean value of cell viability based on three independent replicates,[2]; 100 μM drug + Aβ42 10 μmol/L,73.40%
same,Cell viability data in the first independent test,[2]; 100 μM/L drug + Aβ42 10 μmol/L,74.43%
same,Cell viability data in the second independent test,[2]; 100 μM/L drug + Aβ42 10 μmol/L,86.16%
same,Cell viability data in the third independent test,[2]; 100 μM/L drug + Aβ42 10 μmol/L,59.62%
same,Mean value of cell viability based on three independent replicates,[2]; 1000 μM drug + Aβ42 10 μmol/L,64.34%
same,Cell viability data in the first independent test,[2]; [4],76.72%
same,Cell viability data in the second independent test,[2]; [4],63.92%
same,Cell viability data in the third independent test,[2]; [4],52.37%
same,dose span of effective concentration range relative to JKF-027,[2]; Aβ42 oligomer 10 μmol/L,10^4 times
same,effective concentration range (anti-toxic effect against Aβ42 oligomer),[2]; [5],0.01 to 1000 µmol/L
CCN1CCN(Cc2ccc(-c3cc4c(N[C@H](C)c5ccccc5)ncnc4[nH]3)cc2)CC1 [AEE 788],treatment of Aβ42-induced memory loss,[1],effective
COc1cc2c(Nc3ccc(Br)cc3F)ncnc2cc1OCC1CCN(C)CC1 [ZD-6474],treatment of Aβ42-induced memory loss,[1],effective
